Laboratory results as given in US20080194701A1, “Bifunctional Enzyme with Y-Glutamylcysteine Synthetase and Glutathione Synthetase Activity and Uses Thereof” (priority 2004, published 2008).
Read-outs that look alike come from different tables or passages of the source.

Columns and labels:
[1] = molecular target: T1, S. agalactiae γ-GCS-GS (Streptococcus agalactiae serotype V, UniProt Q8DXM9); experiment: γ-GCS activity assay based on ADP formation, S. agalactiae γ-GCS-GS; type: biochemical; parameters: corresponded to full-length S. agalactiae γ-GCS-GS with an N-terminal His8-tag; made in house; host or cells: E. coli SG13009 with pQE30-gshAB plus pREP4 or pRARE; conditions: for Vmax: unit = 1 μmol product per hour
T1 sequence (Q8DXM9 1-750): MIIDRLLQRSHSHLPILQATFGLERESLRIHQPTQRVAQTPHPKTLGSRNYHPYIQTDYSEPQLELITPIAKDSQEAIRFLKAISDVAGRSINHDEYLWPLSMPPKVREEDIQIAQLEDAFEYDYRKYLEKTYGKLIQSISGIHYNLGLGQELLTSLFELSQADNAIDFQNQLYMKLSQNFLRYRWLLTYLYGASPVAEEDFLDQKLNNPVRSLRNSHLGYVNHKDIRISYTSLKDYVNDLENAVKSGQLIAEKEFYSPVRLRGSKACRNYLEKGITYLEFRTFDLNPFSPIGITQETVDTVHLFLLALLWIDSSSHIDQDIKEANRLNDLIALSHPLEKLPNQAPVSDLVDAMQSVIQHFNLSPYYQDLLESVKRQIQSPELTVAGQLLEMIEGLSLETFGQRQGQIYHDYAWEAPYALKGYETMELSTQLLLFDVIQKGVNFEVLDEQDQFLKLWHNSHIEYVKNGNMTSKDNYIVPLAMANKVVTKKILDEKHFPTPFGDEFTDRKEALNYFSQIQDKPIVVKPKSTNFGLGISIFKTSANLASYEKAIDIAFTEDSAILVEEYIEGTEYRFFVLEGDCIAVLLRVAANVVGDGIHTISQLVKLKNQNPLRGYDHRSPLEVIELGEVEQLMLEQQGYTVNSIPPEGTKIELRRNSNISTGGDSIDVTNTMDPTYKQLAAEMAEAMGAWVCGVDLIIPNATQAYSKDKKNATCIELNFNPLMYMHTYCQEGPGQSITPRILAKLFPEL
Protocol: In Table 1, a unit was defined as the amount of enzyme activity required to catalyze the formation of 1 μmol of product per hour. Specific activity was shown as units per mg protein. Activity was determined at 37° C. based on ADP formation in reaction mixtures containing L-glutamate and L-cysteine and using pyruvate kinase and lactate dehydrogenase to couple ADP formation to NADH oxidation, which was monitored at 340 nm.
Exp. Purif. 13, 268-276 (1998).
At set time points ranging from one to 30 minutes, 5 μl aliquots were removed and assayed for residual enzyme activity using the standard γ-GCS assay based on ADP formation.

[2] = molecular target: E. coli GS (Escherichia coli, UniProt P04425); conditions: cited from earlier work; for Km: substrate Km
Sequence of E. coli GS (P04425 whole entry): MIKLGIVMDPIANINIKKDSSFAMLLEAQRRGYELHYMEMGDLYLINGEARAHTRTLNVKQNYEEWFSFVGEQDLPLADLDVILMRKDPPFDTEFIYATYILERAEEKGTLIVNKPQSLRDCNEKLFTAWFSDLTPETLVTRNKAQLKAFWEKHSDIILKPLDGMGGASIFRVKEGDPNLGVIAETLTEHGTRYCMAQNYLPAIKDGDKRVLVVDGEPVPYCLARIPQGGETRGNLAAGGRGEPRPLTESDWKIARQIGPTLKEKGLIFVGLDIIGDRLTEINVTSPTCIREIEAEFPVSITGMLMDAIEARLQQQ

[3] = molecular target: T2, Rat GS (Rattus norvegicus, UniProt P46413); conditions: cited from earlier work
T2 sequence (P46413 1-474): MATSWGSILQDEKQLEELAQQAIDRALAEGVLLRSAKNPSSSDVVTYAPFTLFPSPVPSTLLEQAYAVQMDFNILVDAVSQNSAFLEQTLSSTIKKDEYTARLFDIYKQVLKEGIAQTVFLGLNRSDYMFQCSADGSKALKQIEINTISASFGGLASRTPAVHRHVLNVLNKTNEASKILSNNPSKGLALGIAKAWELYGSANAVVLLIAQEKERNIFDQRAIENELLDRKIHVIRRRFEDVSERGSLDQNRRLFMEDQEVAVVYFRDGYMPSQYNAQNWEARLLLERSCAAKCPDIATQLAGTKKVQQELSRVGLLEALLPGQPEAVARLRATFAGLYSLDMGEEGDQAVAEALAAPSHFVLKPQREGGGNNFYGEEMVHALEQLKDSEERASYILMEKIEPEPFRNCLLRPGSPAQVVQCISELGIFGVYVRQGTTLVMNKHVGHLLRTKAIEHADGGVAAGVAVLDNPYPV

[4] = molecular target: T3, Human GS (Homo sapiens, UniProt P48637); conditions: cited from earlier work
T3 sequence (P48637 1-474): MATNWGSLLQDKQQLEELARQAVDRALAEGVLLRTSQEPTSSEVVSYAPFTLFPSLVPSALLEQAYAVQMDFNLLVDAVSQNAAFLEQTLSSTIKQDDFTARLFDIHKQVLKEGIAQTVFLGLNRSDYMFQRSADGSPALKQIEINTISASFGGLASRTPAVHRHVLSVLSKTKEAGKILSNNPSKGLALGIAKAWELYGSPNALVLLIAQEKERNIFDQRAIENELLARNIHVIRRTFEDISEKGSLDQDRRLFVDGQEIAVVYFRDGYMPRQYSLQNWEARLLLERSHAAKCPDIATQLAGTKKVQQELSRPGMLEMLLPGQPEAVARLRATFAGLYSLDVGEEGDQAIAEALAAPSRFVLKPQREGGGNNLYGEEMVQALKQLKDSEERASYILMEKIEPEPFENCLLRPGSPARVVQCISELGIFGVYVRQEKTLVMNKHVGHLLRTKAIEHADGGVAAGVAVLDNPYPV

[5] = molecular target: T4, Human γ-GCSc (Homo sapiens, UniProt P48506); conditions: catalytic subunit only, cited from earlier work; for Km: substrate Km
T4 sequence (P48506 1-637): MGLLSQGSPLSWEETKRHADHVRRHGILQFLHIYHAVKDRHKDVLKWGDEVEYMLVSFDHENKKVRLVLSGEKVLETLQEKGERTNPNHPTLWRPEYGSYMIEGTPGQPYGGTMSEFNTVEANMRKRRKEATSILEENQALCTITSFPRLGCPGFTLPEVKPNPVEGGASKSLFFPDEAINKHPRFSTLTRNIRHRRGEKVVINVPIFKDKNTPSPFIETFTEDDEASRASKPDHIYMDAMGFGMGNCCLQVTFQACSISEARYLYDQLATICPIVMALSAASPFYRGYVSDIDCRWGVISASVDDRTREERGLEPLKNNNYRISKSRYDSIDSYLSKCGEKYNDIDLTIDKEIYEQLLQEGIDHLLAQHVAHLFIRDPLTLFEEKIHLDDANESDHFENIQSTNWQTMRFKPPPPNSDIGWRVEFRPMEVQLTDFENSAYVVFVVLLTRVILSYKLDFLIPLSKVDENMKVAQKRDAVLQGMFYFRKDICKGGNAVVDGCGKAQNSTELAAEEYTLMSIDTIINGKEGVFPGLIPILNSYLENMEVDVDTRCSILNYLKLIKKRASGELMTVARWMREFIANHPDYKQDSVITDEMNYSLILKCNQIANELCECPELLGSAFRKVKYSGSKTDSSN

[6] = molecular target: T5, Human γ-GCS (Homo sapiens, UniProt P48506); conditions: cited from earlier work; for Km: substrate Km; for Vmax: unit = 1 μmol product per hour; for Ki: read-out: Ki
T5 sequence (P48506 1-637): T4 sequence (P48506 1-637)
T5 sequence (P48507 1-274 partner): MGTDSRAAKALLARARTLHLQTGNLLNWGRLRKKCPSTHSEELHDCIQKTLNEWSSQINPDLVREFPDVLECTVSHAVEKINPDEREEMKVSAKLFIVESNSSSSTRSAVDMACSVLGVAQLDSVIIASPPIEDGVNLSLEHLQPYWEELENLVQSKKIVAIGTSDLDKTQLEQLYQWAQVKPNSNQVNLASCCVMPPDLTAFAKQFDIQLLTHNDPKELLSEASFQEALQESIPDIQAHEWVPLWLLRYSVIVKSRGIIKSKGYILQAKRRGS

[7] = molecular target: E. coli γ-GCS (Escherichia coli, UniProt P0A6W9); conditions: cited from earlier work; for Km: substrate Km; for Vmax: unit = 1 μmol product per hour
Sequence of E. coli γ-GCS (P0A6W9 whole entry): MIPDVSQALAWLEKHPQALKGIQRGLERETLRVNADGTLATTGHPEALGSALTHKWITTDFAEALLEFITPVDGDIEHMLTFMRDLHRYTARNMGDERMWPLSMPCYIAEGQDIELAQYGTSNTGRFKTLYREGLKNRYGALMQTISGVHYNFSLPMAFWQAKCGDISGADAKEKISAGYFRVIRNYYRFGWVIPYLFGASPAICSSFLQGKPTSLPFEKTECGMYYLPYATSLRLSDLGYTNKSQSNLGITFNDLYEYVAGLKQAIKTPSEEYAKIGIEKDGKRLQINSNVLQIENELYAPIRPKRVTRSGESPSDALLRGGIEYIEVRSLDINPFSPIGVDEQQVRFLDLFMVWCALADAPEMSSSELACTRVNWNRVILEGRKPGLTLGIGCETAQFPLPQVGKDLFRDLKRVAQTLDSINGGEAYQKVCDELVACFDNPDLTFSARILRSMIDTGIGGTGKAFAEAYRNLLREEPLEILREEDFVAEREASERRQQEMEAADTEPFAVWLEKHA

[8] = molecular target: S. mutans γ-GCS-GS (Streptococcus mutans serotype c, UniProt Q8DW15); experiment: γ-GCS activity of S. mutans γ-GCS-GS
Sequence of S. mutans γ-GCS-GS (Q8DW15 whole entry): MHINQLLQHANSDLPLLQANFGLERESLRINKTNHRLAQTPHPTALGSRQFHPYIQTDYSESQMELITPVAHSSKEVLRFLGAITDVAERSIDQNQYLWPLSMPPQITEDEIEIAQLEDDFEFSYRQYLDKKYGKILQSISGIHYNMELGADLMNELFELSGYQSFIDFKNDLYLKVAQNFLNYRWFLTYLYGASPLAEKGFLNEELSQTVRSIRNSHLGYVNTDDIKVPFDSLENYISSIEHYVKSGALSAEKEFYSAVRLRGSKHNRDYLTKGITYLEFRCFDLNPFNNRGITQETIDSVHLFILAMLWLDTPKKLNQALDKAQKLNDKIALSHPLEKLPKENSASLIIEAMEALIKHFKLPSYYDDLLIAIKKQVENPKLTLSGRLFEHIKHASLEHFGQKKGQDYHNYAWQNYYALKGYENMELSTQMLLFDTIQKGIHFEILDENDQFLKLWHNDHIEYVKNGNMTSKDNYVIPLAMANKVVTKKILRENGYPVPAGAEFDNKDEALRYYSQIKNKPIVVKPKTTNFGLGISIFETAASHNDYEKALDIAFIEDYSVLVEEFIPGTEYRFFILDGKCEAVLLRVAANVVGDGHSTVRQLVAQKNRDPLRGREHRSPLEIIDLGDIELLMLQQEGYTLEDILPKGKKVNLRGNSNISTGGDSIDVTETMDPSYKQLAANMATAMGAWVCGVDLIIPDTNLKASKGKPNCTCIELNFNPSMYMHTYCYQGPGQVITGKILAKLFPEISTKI
Description: 3′ and 5′ […] 3′ and introduced unique Bgl II and Hind III sites (underlined), respectively.

[9] = molecular target: E. faecalis γ-GCS-GS (Enterococcus faecalis, UniProt Q82ZG8); experiment: γ-GCS activity of E. faecalis γ-GCS-GS
[10] = tested on: N[C@@H](CS)C(=O)O; experiment: purified protein, by the assay type; conditions: other: substrate Km, γ-GCS activity
Protocol: Expression yielded less soluble protein than seen with S. agalactiae and E. faecalis γ-GCS-GS, but the enzyme was nonetheless isolated in about 10% purity as judged by Coomasie blue stained SDS-PAGE gels. Although both γ-GCS and GS activities were determined to be present, only the γ-GCS activity has been characterized to date in terms of substrate affinities.

[11] = molecular target: T1, S. agalactiae γ-GCS-GS; experiment: GS activity assay based on ADP formation, S. agalactiae γ-GCS-GS; conditions: GSH concentrations of up to 100 mM
Protocol: Transformed cells were grown, induced, and harvested by centrifugation, and were then broken using a French pressure cell. […] The column was equilibrated with 50 mM Tris HCl buffer, pH 7.4, containing 5 mM L-glutamate, 5 mM MgCl2, and 5 mM β-mercaptoethanol, and the high-speed supernatant was loaded. After washing the column with equilibration buffer to remove proteins lacking a His-tag, the expressed His8-tagged protein was eluted using the same buffer supplemented with 200 mM imidazole. Amount of γ-GCS activity was determined as described in Example 2. […] It was observed that the purified enzyme catalyzed both the γ-GCS and the GS reactions. Since the GS-specific activity was higher than the specific activity for any known GS enzyme, it was apparent that the expressed 85 kDa S. agalactiae protein (rather than a trace impurity), accounted for the observed GS activity. Using the pREP4 auxiliary plasmid instead of the pRARE plasmid gave somewhat lower yields (325 mg total protein vs. 442 mg protein using pRARE) but the specific activities of the γ-GCS activity (870 units/mg) and GS activities (1143 units/mg) were similar.
Results for E. coli GS are from H. Gushima et al. J. Appl. Biochem. 5, 210-218 (1983). Results for rat GS are from J. L. Luo et al. Biochem. Biophys. Res. Commun. 275, 577-581 (2000). Results for human GS are from R. Njalsson et al. Biochem. Biophys. Res. Commun. 289, 80-84 (2001) and R. Njalsson et al. Biochem. J. 349, 275-279 (2000).

[12] = MSO also pre-incubated with MgATP, absence of L-glutamate

Compound: CP(=O)(O)CCC(N)C(=O)O.N (centres unmarked) [glufosinate (ammonium salt), glufosinate ammonium]
- inhibition of the γ-GCS activity (in words) [1, 12]: moderately good inhibitors
- Ki ([1]; inhibition of γ-GCS activity, initial reversible binding, read-out: Ki): 29 mM

Compound: N[C@@H](CCC(=O)N[C@@H](CS)C(=O)O)C(=O)O [L-γ-glutamyl-L-cysteine]
- Vmax [2]: 650 units/mg
- Km [2]: 2600 µM

Compound: NCC(=O)O [glycine]
- Vmax [2]: 650 units/mg
- Km [2]: 2000 µM
- Vmax [3]: 678 units/mg
- Km ([3]; substrate Km): 913 µM
- Vmax [4]: 361 ± 84 units/mg
- Km ([4]; substrate Km): 1300 ± 300 µM

Compound: CC[C@H](N)C(=O)O [L-α-aminobutyrate]
- Vmax [5]: ~1250 units/mg
- Km [5]: 1700 µM
- Km [6]: 1300 µM
- Vmax [6]: ~1500 units/mg
- Km ([1]; substrate Km, γ-GCS activity): 8300 ± 1000 µM
- Vmax ([1]; γ-GCS activity): 1148 ± 73 units/mg
- Km [7]: 3900 ± 400 µM
- Vmax [7]: 2970 ± 120 units/mg

Compound: CS(=N)(=O)CC[C@H](N)C(=O)O (mixture of isomers) [L-Methionine-S,R-sulfoximine]
- Ki [1]: > 100 mM
- inhibition of the γ-GCS activity (in words) [1, 12]: no significant inhibition

Compound: N[C@@H](CCC(=O)O)C(=O)O [L-glutamate]
- Vmax [5]: ~1250 units/mg
- Km [5]: 3200 ± 100 µM
- Km [6]: 1900 ± 200 µM
- Vmax [6]: ~1500 units/mg
- Km [1]: 23000 ± 2000 µM
- Vmax ([1]; γ-GCS activity): 1341 ± 145 units/mg
- Km ([8]; substrate Km, γ-GCS activity): 17000 ± 1000 µM
- Km [7]: 1900 ± 200 µM
- Vmax [7]: 3170 ± 125 units/mg
- Km ([9]; substrate Km, γ-GCS activity): 79000 ± 14000 µM

Compound: N[C@@H](CS)C(=O)O [L-cysteine]
- Vmax [5]: ~1250 units/mg
- Km [5]: 130 ± 10 µM
- Km [6]: 100 ± 20 µM
- Vmax [6]: ~1500 units/mg
- Vmax [7]: 3590 ± 200 units/mg

Compound: S. mutans γ-GCS-GS (Streptococcus mutans UA159)
- Km [10]: 144 ± 4 µM

Compound: NC(CCCP(=O)(O)O)C(=O)O (racemic) [D,L-2-amino-5-phosphonovaleric acid]
- Ki [1]: > 100 mM
- inhibition of the γ-GCS activity (in words) [1]: not effective

Compound: NCCSSCCN [Cystamine, reference compound]
- Ki [6]: 2 mM
- inhibition of γ-GCS activity [1]: no reproducibly measurable inhibition
- Ki ([1]; inhibition of γ-GCS activity, initial reversible binding): no inhibition
- Ki [7]: no inhibition

Compound: NC(CCP(=O)(O)O)C(=O)O (racemic) [D,L-2-amino-4-phosphonobutyric acid]
- Ki [1]: 13 mM
- inhibition of the γ-GCS activity (in words) [1, 12]: moderately good inhibitors

Compound: N[C@@H](CCC(=O)N[C@@H](CS)C(=O)NCC(=O)O)C(=O)O [GSH, L-γ-glutamyl-L-cysteinylglycine, reference compound]
- Ki [6]: 5.8 mM
- Ki [1]: no inhibition
- Ki [8]: 67 ± 0.8 mM
- Ki ([7]; read-out: Ki): 2.7 mM
- inhibition of GS activity [11]: does not significantly inhibit
- Ki [9]: 25.1 ± 0.8 mM
